Numbers after ± are expanded uncertainties.
Experiment: molar heat capacity at constant pressure; xn = mol fraction of the nth substance listed
Details: 101 kPa, Liquid

CN(C)CCO [2-(N,N-dimethylamino)ethanol] + O
molar heat capacity at constant pressure [J/K/mol]
Details | x1 = 0.0997 | x1 = 0.1962 | x1 = 0.3003 | x1 = 0.3984 | x1 = 0.4983 | x1 = 0.6008 | x1 = 0.698 | x1 = 0.7981 | x1 = 0.8938 | x1 = 1
303.15 K | 103 ± 1 | 118 ± 1 | 132 ± 1 | 144 ± 1 | 156 ± 1 | 168 ± 1 | 179 ± 2 | 191 ± 2 | 202 ± 2 | 213 ± 2
308.15 K | 104 ± 1 | 119 ± 1 | 134 ± 1 | 146 ± 1 | 158 ± 1 | 170 ± 2 | 181 ± 2 | 193 ± 2 | 205 ± 2 | 215 ± 2
313.15 K | 105 ± 1 | 121 ± 1 | 136 ± 1 | 149 ± 1 | 161 ± 1 | 173 ± 2 | 185 ± 2 | 196 ± 2 | 208 ± 2 | 217 ± 2
318.15 K | 105 ± 1 | 123 ± 1 | 139 ± 1 | 152 ± 1 | 164 ± 1 | 177 ± 2 | 188 ± 2 | 199 ± 2 | 210 ± 2 | 219 ± 2
323.15 K | 107 ± 1 | 125 ± 1 | 141 ± 1 | 155 ± 1 | 168 ± 1 | 180 ± 2 | 191 ± 2 | 203 ± 2 | 213 ± 2 | 221 ± 2
328.15 K | 108 ± 1 | 127 ± 1 | 144 ± 1 | 158 ± 1 | 171 ± 2 | 184 ± 2 | 195 ± 2 | 206 ± 2 | 215 ± 2 | 222 ± 2
333.15 K | 109 ± 1 | 129 ± 1 | 147 ± 1 | 161 ± 1 | 175 ± 2 | 187 ± 2 | 199 ± 2 | 209 ± 2 | 217 ± 2 | 223 ± 2
338.15 K | 112 ± 1 | 132 ± 1 | 150 ± 1 | 165 ± 1 | 179 ± 2 | 192 ± 2 | 203 ± 2 | 213 ± 2 | 220 ± 2 | 223 ± 2
343.15 K | 114 ± 1 | 136 ± 1 | 155 ± 1 | 170 ± 2 | 184 ± 2 | 196 ± 2 | 208 ± 2 | 218 ± 2 | 223 ± 2 | 223 ± 2
348.15 K | 118 ± 1 | 140 ± 1 | 160 ± 1 | 176 ± 2 | 190 ± 2 | 203 ± 2 | 214 ± 2 | 223 ± 2 | 225 ± 2 | 224 ± 2
353.15 K | 123 ± 1 | 146 ± 1 | 166 ± 1 | 184 ± 2 | 198 ± 2 | 210 ± 2 | 221 ± 2 | 229 ± 2 | 228 ± 2 | 226 ± 2
